Measured values published in US20170007559A1, “COMPOSITIONS AND METHODS FOR PROTECTING COLONIC EPITHELIAL BARRIER FUNCTION” (The University of Tennessee Research Foundation, priority 2015, published 2017).

What was measured:
[1] = system: colonic epithelial TJs, AJs and actin cytoskeleton; assay: Immunofluorescence of TJ and AJ proteins and F-actin in mouse intestine after total body irradiation (4 Gy); type: in vivo; settings: 20 mM NAC in liquid diet for 5 days prior to TBI 4 Gy, 2 hours post irradiation
Procedure: (§1) In the first study, adult female (12-14 week's age) mice were subjected to total body irradiation (4 Gy). At 2-24 hours post-irradiation (IR), the integrity of colonic epithelial TJs, AJs and actin cytoskeleton was examined. In a second study, mice were randomized to four groups: Sham (control), IR, NAC and NAC+IR, and fed a liquid diet with (NAC and NAC+IR) or without (Sham and IR) 20 mM NAC for 5 days prior to irradiation. IR and NAC+IR mice were subjected to total body irradiation (4 Gy), while Sham and NAC mice were sham-treated. At 2 hours post-irradiation, colon and ileum were collected and examined for oxidative stress and epithelial junctional integrity. At the end of experiment, gut permeability was measured as described below. Colon and ileum segments were stored frozen for further analyses.
Cryo-sections of colon (10 μm thickness) and ileum (12 μm thickness) were fixed in acetone methanol mixture (1:1) at […] for 2 min and rehydrated in phosphate buffered saline (PBS). Sections were permeabilized with 0.5% Triton X-100 in PBS for 15 min and blocked in 4% non-fat milk in TBST (20 mM Tris, pH 7.2 and 150 mM NaCl). It was then incubated for one hour with primary antibodies (mouse monoclonal anti-occludin and rabbit polyclonal anti-ZO-1 antibodies or mouse monoclonal E-cadherin and rabbit polyclonal anti-β-catenin antibodies), followed by incubation for one hour with secondary antibodies (AlexaFluor-488-conjugated anti-mouse IgG and Cy3-conjugated anti-rabbit IgG antibodies from Molecular Probes, Eugene, Oreg.) containing Hoechst 33342. The fluorescence was examined by using a confocal microscope (Zeiss 710) and images from x-y sections (1 μm) were collected using Zen software. Images were stacked using the Image J software (NIH) and processed by Adobe Photoshop (Adobe Systems Inc., San Jose, Calif.).
Studies were performed to evaluate the effect of RP-1 on radiation-induced redistribution of TJ and AJ proteins in mouse colon in vivo. Mice were subjected to TBI (4 Gy); in some groups, animals received a one-time injection of RP-1 (0.1 mg/kg) 30 min prior to IRR. At 2 hours post-IRR, cryosections of colon were stained for TJ and AJ proteins, images collected by confocal microscopy and fluorescence measured by densitometric analysis.

[2] = system: detergent-insoluble fractions of TJ and AJ proteins; assay: Immunoblot of TJ and AJ proteins in detergent-insoluble fraction of distal colonic mucosa after total body irradiation; type: in vivo, mouse; settings: 20 mM NAC in liquid diet for 5 days prior to TBI 4 Gy, 2 hours post irradiation
Procedure: as §1, with “Colon and ileum segments were stored frozen for further analyses.” left out
Actin-rich detergent-insoluble fraction was prepared as described previously (Elias, B. C.; Suzuki, T.; Seth, A.; Giorgianni, F.; Kale, G.; Shen, L.; Turner, J. R.; Naren, A.; Desiderio, D. M.; Rao, R. Phosphorylation of Tyr-398 and Tyr-402 in occludin prevents its interaction with ZO-1 and destabilizes its assembly at the tight junctions. J Biol Chem 284:1559-1569; 2009; Kale, G.; Naren, A. P.; Sheth, P.; Rao, R. K. Tyrosine phosphorylation of occludin attenuates its interactions with ZO-1, ZO-2, and ZO-3. Biochem Biophys Res Commun 302:324-329; 2003.). […] Protein content was measured by BCA method (Pierce Biotechnology, Rockford, Ill.). […]

[3] = system: intestinal mucosal barrier function; assay: Gut permeability in vivo, vascular-to-luminal flux of FITC-inulin after total body irradiation; set-up: species or system mouse
Procedure: as §1, with “analyses. Mucosal barrier dysfunction was evaluated by measuring gut permeability to FITC-inulin (6 kDa). On the last day of experiment, mice were intravenously injected with FITC-inulin (50 mg/ml solution; 2 μl/g body weight) via tail vein. One hour after injection, blood samples were collected by cardiac puncture under isoflurane anesthesia for plasma preparation. Luminal contents from colon and ileum were flushed with 0.9% saline. Fluorescence in plasma and luminal flushing was measured using fluorescence plate reader. Fluorescence values in the luminal flushing were normalized to fluorescence values in corresponding plasma samples and calculated as percent of amount injected.” for “analyses.”

colonic loops = assay: Inulin absorption from the lumen of isolated colonic loops of irradiated mice; type: in vivo, mouse; settings: loops prepared 3 hours post irradiation from NAC-fed, incubated 75 min
Procedure: At 3 hours post irradiation, colonic loops were prepared and filled with 0.15 ml of 0.9% saline containing FITC-inulin (0.05 mg/ml) and incubated for 75 min in an incubator. Luminal contents were measured for fluorescence to evaluate inulin absorption from colonic lumen.

[4] = system: reduced and oxidized protein thiols; assay: Protein thiol assay in colon and ileum after total body irradiation; type: in vivo, mouse; settings: TBI 4 Gy, 2 hours post irradiation
Procedure: as §1, with “analyses. Protein thiols in colonic sections were assessed as described before. Reduced protein thiols were evaluated by staining cryosections colon with BODIPY FL-N-(2-aminoethyl) maleimide (Flm) and confocal microscopy at excitation and emission wavelengths, 490 nm and 534 nm, respectively. For oxidized protein thiols, the reduced protein thiol was first alkylated with N-ethylmaleimide followed by reduction of oxidized protein thiols with tris (2-carboxyethyl) phosphine prior to staining with Flm. […] Fluorescence images collected and fluorescence quantitated by Image J software.” for “analyses.”

Caco-2 cell monolayers = assay: Radiation-induced redistribution of TJ proteins in Caco-2 cell monolayers; type: cell-based; settings: NAC 10 mM pretreatment for one hour, radiation 4 Gy
Procedure: Therefore, we evaluated the effect of radiation on barrier function and TJ proteins in Caco-2 and m-ICC12 cell monolayers in vitro. Barrier function was evaluated by measuring transepithelial electrical resistance (TER) and transepithelial flux of FITC-inulin in cell monolayers grown on transwell inserts. Cell monolayers were also fixed and stained for occludin and ZO-1 for confocal microscopy.
The effect of LPA was also tested in m-ICC12 cells at varying doses of radiation. LPA blocked IRR-induced redistribution of ZO-1 (FIG. 14C). […] These models can be used for further mechanistic studies.

## CC(=O)N[C@@H](CS)C(=O)O [NAC, N-acetyl L-cysteine]
[1]; colon and ileum
  radiation-induced redistribution of Cldn-3: blocked
  radiation-induced redistribution of E-cadherin and β-catenin from the intercellular junctions: absent
  radiation-induced redistribution of occludin and ZO-1 from the intercellular junctions: almost a complete attenuation
[1]; colon
  radiation-induced loss of F-actin (actin cytoskeleton), colon: almost complete
[1]; ileum
  radiation-induced loss of F-actin (actin cytoskeleton), ileum: only partially protected
[2]
  radiation-induced loss of detergent-insoluble fractions of TJ and AJ proteins: blocked
[3]; NAC-fed, sham-treated mice (no irradiation)
  mucosal permeability in colon or ileum, NAC by itself: no significant influence
[3]; colon, 20 mM NAC in liquid diet for 5 days prior to TBI 4 Gy, in vivo flux
  radiation-induced increase in colonic mucosal permeability to FITC-inulin: effectively attenuated
[3]; ileum, NAC supplementation in diet prior to TBI 4 Gy, in vivo flux
  radiation-induced increase in inulin permeability in the ileum: blocked
Colonic loops
  radiation-induced increase in inulin absorbed from the lumen of colonic loops: absent
[4]; NAC fed mice, confocal images
  radiation-induced decrease in stain for reduced protein thiols and increase in stain for oxidized protein thiols: absent
[4]; NAC feeding
  radiation-induced conversion of reduced protein thiols into oxidized protein thiols, densitometric analysis of fluorescence: attenuates
Caco-2 cell monolayers
  radiation-induced loss of junctional occludin and ZO-1: significantly blocked
